Structures can show the parent of a compound that is named as a salt.
Legend:
human STING (hSTING) = molecular target: T1, human STING (hSTING) (Homo sapiens, UniProt Q86WV6); assay: Inhibition test of intracellular human STING (hSTING) pathway using SEAP reporter cells (HEK-Blue ISG), stimulation with Compound 3; format: cell-based; design: hSTING inhibitory activity: scale not given here; conditions: Compound 3 10 nM stimulation, 21 hours; for IC50: read-out: hSTING inhibitory activity
T1 construct: host or cells: HEK-Blue ISG cells (HEK293-derived SEAP reporter line)
Method in brief: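 HEK-Blue ISG cells with IRF-inducible SEAP reporter, pretreated 1 h with compound (final 0.1 to 10 μM), then stimulated with Compound 3 (final 10 nM) for 21 h at 37° C. Supernatant SEAP measured colorimetrically; IC50 from log-concentration regression, normalized to stimulated (100%) and unstimulated (0%) controls.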

[1] = test system: STING activation (IFN-β production in THP-1 cells); assay: Human IFN-β production inhibition test by cGAMP stimulation in THP-1 cells; format: cell-based; design: IFN-β bioinhibitory activity: scale not given here; conditions: 2'3'-cGAMP transfection, 18 hours, IFN-β ELISA; for IC50: Homo sapiens, read-out: IFN-β bioinhibitory activity
Method in brief: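 PMA-primed (100 nM, overnight) THP-1 cells pretreated 1 h with compound at 0.001 to 1 μM (0.1% DMSO), then transfected with 0.12 μg/well 2′3′-cGAMP and cultured 18 hours. Supernatant IFN-β measured by ELISA; IC50 by regression against log concentration, normalised to cGAMP-only (100%) and unstimulated (0%) controls.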

T1 sequence (Q86WV6 whole entry H232R): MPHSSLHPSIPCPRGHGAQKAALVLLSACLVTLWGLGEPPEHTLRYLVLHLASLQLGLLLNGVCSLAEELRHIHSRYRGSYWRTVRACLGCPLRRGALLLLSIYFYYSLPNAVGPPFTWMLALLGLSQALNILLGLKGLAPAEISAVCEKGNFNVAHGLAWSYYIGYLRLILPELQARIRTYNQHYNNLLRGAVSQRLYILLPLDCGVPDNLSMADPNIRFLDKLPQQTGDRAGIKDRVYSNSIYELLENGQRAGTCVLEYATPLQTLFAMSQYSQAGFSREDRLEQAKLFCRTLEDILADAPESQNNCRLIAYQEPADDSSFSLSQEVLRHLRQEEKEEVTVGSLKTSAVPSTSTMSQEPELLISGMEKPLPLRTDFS

Row | SMILES | hSTING inhibitory activity (human STING (hSTING)) | IC50 [1] | IC50 (human STING (hSTING)) | IFN-β bioinhibitory activity [1]
1 | Fc1cc2nc(Nc3c[nH]c4ccc(Cl)nc34)[nH]c2cc1C(F)(F)F [Embodiment 160, N-(5-Chloro-1H-pyrrolo[3,2-b]pyridin-3-yl)-5-fluoro-6-(trifluoromethyl)-1H-benzo[d]imidazol-2-amine] | * * * | 0.1 to 1 µM |  | 
2 | Cn1c(Nc2c[nH]c3ccc(Cl)nc23)nc2cc(Br)ccc21 [Embodiment 169, 5-bromo-N-(5-chloro-1H-pyrrolo [3,2-b]pyridin-3-yl)-1-methyl-1H-benzo[d]imidazol-2-amine] |  |  | 1 to 10 µM | * *
3 | COCCn1c(Nc2c[nH]c3ccc(Cl)nc23)nc2cc(C(F)(F)F)ccc21 [Embodiment 178, N-(5-chloro-1H-pyrrolo[3,2-b]pyridin-3-yl)-1-(2-methoxyethyl)-5-(trifluoromethyl)-1H-benzo[d]imidazol-2-amine] |  | ≥ 1 µM | ≥ 10 µM | 
4 | Cn1c(Nc2c[nH]c3ccc(Cl)cc23)nc2cc(F)ccc21 [Embodiment 185, N-(5-Chloro-1H-indol-3-yl)-5-fluoro-1-methyl-1H-benzo[d]imidazol-2-amine formate] | * * |  |  | * * *
5 | FC(F)(F)c1ccc2c(c1)nc(Nc1c[nH]c3ccc(Cl)nc13)n2C1CC1 [Embodiment 186, N-(5-Chloro-1H-pyrrolo[3,2-b]pyridin-3-yl)-1-cyclopropyl-5-(trifluoromethyl)-1H-benzo[d] imidazol-2-amine] |  | 0.1 to 1 µM | 1 to 10 µM | 
6 | Fc1ccc(Oc2ccc3nc(Nc4c[nH]c5ccc(Cl)nc45)n(C4CC4)c3c2)cc1 [Embodiment 187, N-(5-chloro-1H-pyrrolo[3,2-b]pyridin-3-yl)-1-cyclopropyl-6-(4-fluorophenoxy)-1H-benzo[d] imidazole-2-amine] | * * | 0.1 to 1 µM |  | 
7 | C=Cc1ccc2[nH]cc(Nc3nc4ccc(Oc5ccc(F)cc5)cc4n3C3CC3)c2n1 [Embodiment 188, 1-Cyclopropyl-6-(4-fluorophenoxy)-N-(5-vinyl-1H-pyrrolo[3,2-b]pyridin-3-yl)-1H-benzo[d]imidazole-2-amine] | * * | 0.1 to 1 µM |  | 
8 | Fc1ccc2c(c1)nc(Nc1c[nH]c3ccc(Cl)cc13)n2C1CC1 [Embodiment 189, N-(5-Chloro-1H-indol-3-yl)-1-cyclopropyl-5-fluoro-1H-benzo[d] imidazol-2-amine] | * * | 0.1 to 1 µM |  | 
9 | CCc1ccc2[nH]cc(Nc3nc4ccc(Oc5ccc(F)cc5)cc4n3C3CC3)c2n1 [Embodiment 190, 1-Cyclopropyl-N-(5-ethyl-1H-pyrrolo[3,2-b]pyridin-3-yl)-6-(4-fluorophenoxy)-1H-benzo[d]imidazole-2-amine formate] |  | ≥ 1 µM | 1 to 10 µM | 
10 | C=Cc1ccc2[nH]cc(Nc3nc4ccc(Oc5ccc(F)cc5)cc4n3C)c2n1 [Embodiment 191] | * * | 0.1 to 1 µM |  | 
11 | CCc1ccc2[nH]cc(Nc3nc4ccc(Oc5ccc(F)cc5)cc4n3C)c2n1 [Embodiment 192, N-(5-ethyl-1H-pyrrolo[3,2-b]pyridin-3-yl)-6-(4-fluorophenoxy)-1-methyl-1H-benzo[d]imidazole-2-amine formate] | * * | 0.1 to 1 µM |  | 
12 | Cn1c(Nc2c[nH]c3ccc(Cl)cc23)nc2ccc(Oc3ccc(F)cc3)cc21 [Embodiment 195, N-(5-Chloro-1H-indol-3-yl)-6-(4-fluorophenoxy)-1-methyl-1H-benzo[d]imidazol-2-amine] | * * * |  |  | * *
13 | Fc1ccc(Oc2ccc3nc(Nc4c[nH]c5ccc(Cl)cc45)n(C4CC4)c3c2)cc1 [Embodiment 196, N-(5-Chloro-1H-indol-3-yl)-1-cyclopropyl-6-(4-fluorophenoxy)-1H-benzo[d]imidazol-2-amine] | * * * |  |  | * *
14 | Cn1c(Nc2c[nH]c3ccc(Cl)nc23)nc2cc(OC(F)(F)F)ccc21 [Embodiment 210, N-(5-Chloro-1H-pyrrolo[3,2-b]pyridin-3-yl)-1-methyl-5-(trifluoromethoxy)-1H-benzo[d] imidazol-2-amine] | * * |  |  | * *
15 | CCCn1c(Nc2c[nH]c3ccc(Cl)cc23)nc2cc(C(F)(F)F)ccc21 [Embodiment 212, N-(5-Chloro-1H-indol-3-yl)-1-propyl-5-(trifluoromethyl)-1H-benzo[d]imidazo-2-amine] | * * * |  |  | * * *
16 | C=CCn1c(Nc2c[nH]c3ccc(Cl)cc23)nc2cc(C(F)(F)F)ccc21 [Embodiment 213, 1-allyl-N-(5-chloro-1H-indol-3-yl)-5-(trifluoromethyl)-1H-benzo[d]imidazol-2-amine] | * * * |  |  | * *
17 | C#CCn1c(Nc2c[nH]c3ccc(Cl)cc23)nc2cc(C(F)(F)F)ccc21 [Embodiment 214, N-(5-Chloro-1H-indol-3-yl)-1-(pro-2-yl)-5-(trifluoromethyl)-1H-benzo[d]imidazol-2-amine] | * * * |  |  | * * *
18 | FC(F)(F)c1ccc2c(c1)nc(Nc1c[nH]c3ccc(Cl)cc13)n2CC1CC1 [Embodiment 215, N-(5-Chloro-1H-indol-3-yl)-1-(cyclopropylmethyl)-5-(trifluoromethyl)-1H-benzo[d] imidazol-2-amine] | * * * |  |  | * *
19 | CN(C)n1c(Nc2c[nH]c3ccc(Cl)cc23)nc2cc(C(F)(F)F)ccc21 [Embodiment 216, N2-(5-Chloro-1H-indol-3-yl)-N1,N1-dimethyl-5-(trifluoromethyl)-1H-benzo[d]imidazole-1,2-diamine] | * * * |  |  | * * *
20 | CCn1c(Nc2c[nH]c3ccc(Cl)cc23)nc2cc(C(F)(F)F)ccc21 [Embodiment 217, N-(5-Chloro-1H-indol-3-yl)-1-ethyl-5-(trifluoromethyl)-1H-benzo[d]imidazol-2-amine] | * * * |  |  | * *
21 | CC(C)n1c(Nc2c[nH]c3ccc(Cl)cc23)nc2cc(C(F)(F)F)ccc21 [Embodiment 218, N-(5-Chloro-1H-indol-3-yl)-1-isopropyl-5-(trifluoromethyl)-1H-benzo[d]imidazol-2-amine] | * * * |  |  | * *
22 | [2H]C([2H])([2H])n1c(Nc2c[nH]c3ccc(Cl)cc23)nc2cc(C(F)(F)F)ccc21 [Embodiment 221, N-(5-Chloro-1H-indol-3-yl)-1-(methyl-d3)-5-(trifluoromethyl)-1H-benzo[d]imidazol-2-mine] | * * * |  |  | * *
23 | COCCn1c(Nc2c[nH]c3ccc(Cl)cc23)nc2cc(C(F)(F)F)ccc21 [Embodiment 222, N-(5-Chloro-1H-indol-3-yl)-1-(2-methoxyethyl)-5-(trifluoromethyl)-1H-benzo[d]imidazol-2-amine] | * * * |  |  | * *
24 | OCCn1c(Nc2c[nH]c3ccc(Cl)cc23)nc2cc(C(F)(F)F)ccc21 [Embodiment 223, 2-{2-[(5-chloro-1H-indol-3-yl)amino]-5-(trifluoromethyl)-1H-benzo[d]imidazol-1-yl}ethanol] | * * * |  |  | * *
25 | FC(F)(F)c1ccc2c(c1)nc(Nc1c[nH]c3ccc(Br)cc13)n2C1CC1 [Embodiment 224, N-(5-bromo-1H-indol-3-yl)-1-cyclopropyl-5-(trifluoromethyl)-1H-benzo[d]imidazol-2-amine] | * * * |  |  | * *
26 | Cn1c(Nc2c[nH]c3ccc(Cl)cc23)nc2cc(C(F)(F)F)cc(F)c21 [Embodiment 225, N-(5-Chloro-1H-indol-3-yl)-7-fluoro-1-methyl-5-(trifluoromethyl)-1H-benzo[d]imidazol-2-amine] | * * * |  |  | * *
27 | FC(F)(F)c1ccc2c(c1)nc(Nc1c[nH]c3ccc(Cl)cc13)n2C1COC1 [Embodiment 226, N-(5-Chloro-1H-indol-3-yl)-1-(oxetan-3-yl)-5-(trifluoromethyl)-1H-benzo[d]imidazol-2-amine] | * * |  |  | * *
28 | CC#CCn1c(Nc2c[nH]c3ccc(Cl)cc23)nc2cc(C(F)(F)F)ccc21 [Embodiment 228, 1-(But-2-yn-1-yl)-N-(5-rolo-1H-indol-3-yl)-5-(trifluoromethyl)-1H-benzo[d]imidazol-2-amine] | * * |  |  | * *
29 | FC(F)(F)Oc1ccc2c(c1)nc(Nc1c[nH]c3ccc(Cl)cc13)n2C1CC1 [Embodiment 231, N-(5-Chloro-1H-indol-3-yl)-1-cyclopropyl-5-(trifluoromethoxy)-1H-benzo[d]imidazol-2-amine] | * * * |  |  | * *
30 | FC(F)(F)c1ccc2c(c1)nc(Nc1c[nH]c3ccc(I)cc13)n2C1CC1 [Embodiment 232, 1-Cyclopropyl-N-(5-iodo-1H-indol-3-yl)-5-(trifluoromethyl)-1H-benzo[d]imidazol-2-amine] | * * |  |  | * *

Reference: US20240279205A1, “NOVEL BENZIMIDAZOLE DERIVATIVE” (Carna Biosciences, Inc., priority 2020, published 2024)
